Source: ChEMBL document CHEMBL1154879, “Discovery of (thienopyrimidin-2-yl)aminopyrimidines as potent, selective, and orally available pan-PI3-kinase and dual pan-PI3-kinase/mTOR inhibitors for the treatment of cancer” (J Med Chem, 2010)
Active and inactive are the calls of the source. The calls are words filed in the database; no cut-off is given here.

Experiments:
[1] = Cmax in nu/nu mouse at 5 mg/kg, po; assay type: ADME, organism-based; set-up: dose 5 mg/kg, route oral; details: in vivo
[2] = Oral bioavailability in cynomolgus monkey at 2 mg/kg, po; assay type: ADME, organism-based, Macaca fascicularis; details: in vivo
[3] = Oral bioavailability in Sprague-Dawley rat at 5 mg/kg, po; assay type: ADME, organism-based; details: in vivo
[4] = Protein binding in mouse plasma; assay type: ADME, cell-free; details: read-out: PPB (converted)
Mus musculus [5] = experiment: Inhibition of PI3K/Akt/mTOR pathway signaling in PI3Kalpha mutant expressing human MCF7.1 cells xenografted nu/nu mouse assessed as inhibition of S6RP Ser235/236 phosphorylation at 10 mg/kg, po qd for 21 days measured 1 hr after last administered dose on day 21 by electrochemiluminescence assay; assay type: functional
PC-3 [6] = experiment: Antitumor activity against human PC3 cells xenografted in nu/nu mouse assessed as inhibition of tumor growth at 10 mg/kg, po qd for 14 days; assay type: functional; details: PC-3, 336 h, read-out: TGI
Mus musculus [7] = experiment: Toxicity in human PC3 cells xenografted nu/nu mouse assessed as body weight loss at 1 mg/kg, po qd for 14 days; assay type: organism-based, PC-3; set-up: dose 1 mg/kg, route oral; details: in vivo, 336 h
[8] = Volume of distribution at steady state in Beagle dog at 1 mg/kg, iv; assay type: ADME, organism-based, Canis lupus familiaris; set-up: dose 1 mg/kg, route intravenous; details: in vivo, read-out: Vdss
Mus musculus [9] = experiment: Inhibition of PI3K/Akt/mTOR pathway signaling in PI3Kalpha mutant expressing human MCF7.1 cells xenografted nu/nu mouse assessed as inhibition of Akt Ser473 phosphorylation at 10 mg/kg, po qd for 21 days measured 1 hr after last administered dose on day 21 by electrochemiluminescence assay; assay type: functional
PC-3 [10] = experiment: Antitumor activity against human PC3 cells xenografted in nu/nu mouse assessed as inhibition of tumor growth at 1 mg/kg, po qd for 14 days; assay type: functional, organism-based; set-up: dose 1 mg/kg
[11] = molecular target: Phosphatidylinositol 4-kinase beta (Homo sapiens) (UniProt Q9UBF8); experiment: Inhibition of PI4Kbeta at 1 uM
[12] = Clearance in Sprague-Dawley rat at 1 mg/kg, iv; assay type: ADME, organism-based; set-up: dose 1 mg/kg, route intravenous; details: in vivo
[13] = AUC in nu/nu mouse at 5 mg/kg, po; assay type: ADME, organism-based; set-up: dose 5 mg/kg, route oral; details: plasma
[14] = Half life in nu/nu mouse at 5 mg/kg, po; assay type: ADME, organism-based; set-up: dose 5 mg/kg, route oral; details: in vivo
PC-3 [15] = experiment: Antitumor activity against human PC3 cells xenografted in nu/nu mouse assessed as reduction of tumor volume at 10 mg/kg, po qd for 14 days; assay type: functional; set-up: scale not given: the % may be the effect or the level left
Aurora kinase A = molecular target: T1, Aurora kinase A (Homo sapiens, UniProt O14965); experiment: Inhibition of Aurora A kinase
T1 sequence (O14965 whole entry): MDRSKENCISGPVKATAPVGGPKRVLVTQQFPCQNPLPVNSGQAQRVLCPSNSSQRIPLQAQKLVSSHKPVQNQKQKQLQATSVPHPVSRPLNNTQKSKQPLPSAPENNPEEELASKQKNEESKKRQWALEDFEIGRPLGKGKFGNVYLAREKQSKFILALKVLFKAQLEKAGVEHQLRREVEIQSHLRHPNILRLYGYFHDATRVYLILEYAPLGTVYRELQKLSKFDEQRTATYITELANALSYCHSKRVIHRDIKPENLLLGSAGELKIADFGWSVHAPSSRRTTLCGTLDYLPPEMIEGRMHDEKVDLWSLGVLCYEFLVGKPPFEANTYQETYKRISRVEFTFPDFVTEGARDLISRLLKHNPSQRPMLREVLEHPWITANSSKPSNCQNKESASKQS

[16] = Volume of distribution at steady state in cynomolgus monkey at 1 mg/kg, iv; assay type: ADME, organism-based, Macaca fascicularis; set-up: dose 1 mg/kg, route intravenous; details: in vivo, read-out: Vdss
[17] = Protein binding in rat plasma; assay type: ADME, cell-free; details: read-out: PPB (converted)
[18] = Clearance in cynomolgus monkey at 1 mg/kg, iv; assay type: ADME, organism-based, Macaca fascicularis; set-up: dose 1 mg/kg, route intravenous; details: in vivo
[19] = molecular target: Phosphatidylinositol 4-phosphate 3-kinase C2 domain-containing subunit alpha (Homo sapiens) (UniProt O00443); experiment: Inhibition of PIK3C2alpha at 1 uM
Mus musculus [20] = experiment: Inhibition of PI3K/Akt/mTOR pathway signaling in PI3Kalpha mutant expressing human MCF7.1 cells xenografted nu/nu mouse assessed as inhibition of Pras40 Thr246 phosphorylation at 10 mg/kg, po qd for 21 days measured 4 hrs after last administered dose on day 21 by ELISA; assay type: functional
Mus musculus [21] = experiment: Toxicity in human MCF7.1 cells expressing PI3Kalpha mutant xenografted nu/nu mouse assessed as body weight loss at 10 mg/kg, po qd for 21 days; assay type: organism-based; set-up: dose 10 mg/kg, route oral; details: in vivo, 504 h
[22] = Oral bioavailability in nu/nu mouse at 5 mg/kg, po; assay type: ADME, organism-based; details: in vivo
[23] = Oral bioavailability in Sprague-Dawley rat at 2 mg/kg; assay type: ADME, organism-based; details: in vivo
Mus musculus [24] = experiment: Toxicity in human PC3 cells xenografted nu/nu mouse assessed as body weight loss at 10 mg/kg, po qd for 14 days; assay type: organism-based, PC-3; set-up: dose 10 mg/kg, route oral; details: in vivo, 336 h
[25] = AUC in Sprague-Dawley rat at 5 mg/kg, po; assay type: ADME, organism-based; set-up: dose 5 mg/kg, route oral; details: plasma
[26] = Cmax in Sprague-Dawley rat at 5 mg/kg, po; assay type: ADME, organism-based; set-up: dose 5 mg/kg, route oral; details: in vivo
[27] = molecular target: Mitogen-activated protein kinase kinase kinase 9 (Homo sapiens, UniProt P80192); experiment: Inhibition of MLK1
[28] = Antitumor activity against human MCF7.1 cells expressing PI3Kalpha mutant xenografted in nu/nu mouse assessed as inhibition of tumor growth at 10 mg/kg, po qd for 21 days; assay type: functional; details: MCF7.1, 504 h, read-out: TGI
[29] = molecular target: Phosphatidylinositol 4-phosphate 3-kinase C2 domain-containing subunit beta (Homo sapiens) (UniProt O00750); experiment: Inhibition of PIK3C2beta at 1 uM
[30] = Protein binding in Beagle dog plasma; assay type: ADME, cell-free, Canis lupus familiaris; details: read-out: PPB (converted)
[31] = Protein binding in cynomolgus monkey plasma; assay type: ADME, cell-free, Macaca fascicularis; details: read-out: PPB (converted)
PC-3 [32] = experiment: Antiproliferative activity against human PC3 cells deficient in PTEN in after 3 to 4 days; assay type: functional, cell-based
[33] = Clearance in Beagle dog at 1 mg/kg, iv; assay type: ADME, organism-based, Canis lupus familiaris; set-up: dose 1 mg/kg, route intravenous; details: in vivo
Mus musculus [34] = experiment: Inhibition of PI3K/Akt/mTOR pathway signaling in PI3Kalpha mutant expressing human MCF7.1 cells xenografted nu/nu mouse assessed as inhibition of Pras40 Thr246 phosphorylation at 10 mg/kg, po qd for 21 days measured 1 hr after last administered dose on day 21 by ELISA; assay type: functional
[35] = molecular target: Phosphatidylinositol 3-kinase catalytic subunit type 3 (Homo sapiens) (UniProt Q8NEB9); experiment: Inhibition of VPS34 at 1 uM
[36] = Clearance in Sprague-Dawley rat liver microsomes; assay type: ADME, Microsome
[37] = Volume of distribution at steady state in nu/nu mouse at 1 mg/kg, iv; assay type: ADME, organism-based; set-up: dose 1 mg/kg, route intravenous; details: in vivo, read-out: Vdss
[38] = molecular target: Tyrosine-protein kinase SYK (Homo sapiens, UniProt P43405); experiment: Inhibition of SYK
[39] = Oral bioavailability in Beagle dog at 2 mg/kg, po; assay type: ADME, organism-based, Canis lupus familiaris; details: in vivo
[40] = Cmax in Beagle dog at 2 mg/kg, po; assay type: ADME, organism-based, Canis lupus familiaris; set-up: dose 2 mg/kg, route oral; details: in vivo
Mus musculus [41] = experiment: Inhibition of PI3K/Akt/mTOR pathway signaling in PI3Kalpha mutant expressing human MCF7.1 cells xenografted nu/nu mouse assessed as inhibition of S6RP Ser235/236 phosphorylation at 10 mg/kg, po qd for 21 days measured 4 hrs after last administered dose on day 21 by electrochemiluminescence assay; assay type: functional
[42] = AUC in cynomolgus monkey at 2 mg/kg, po; assay type: ADME, organism-based, Macaca fascicularis; set-up: dose 2 mg/kg, route oral; details: plasma
[43] = AUC in Beagle dog at 2 mg/kg, po; assay type: ADME, organism-based, Canis lupus familiaris; set-up: dose 2 mg/kg, route oral; details: plasma
[44] = Clearance in nu/nu mouse at 1 mg/kg, iv; assay type: ADME, organism-based; set-up: dose 1 mg/kg, route intravenous; details: in vivo
[45] = Cmax in cynomolgus monkey at 2 mg/kg, po; assay type: ADME, organism-based, Macaca fascicularis; set-up: dose 2 mg/kg, route oral; details: in vivo
Mus musculus [46] = experiment: Inhibition of PI3K/Akt/mTOR pathway signaling in PI3Kalpha mutant expressing human MCF7.1 cells xenografted nu/nu mouse assessed as inhibition of Akt Ser473 phosphorylation at 10 mg/kg, po qd for 21 days measured 4 hrs after last administered dose on day 21 by electrochemiluminescence assay; assay type: functional
[47] = molecular target: Serine/threonine-protein kinase mTOR (Homo sapiens, UniProt P42345)
[48] = Volume of distribution at steady state in Sprague-Dawley rat at 1 mg/kg, iv; assay type: ADME, organism-based; set-up: dose 1 mg/kg, route intravenous; details: in vivo, read-out: Vdss

Phosphatidylinositol 3-kinase catalytic subunit type 3 (Homo sapiens), sequence (Q8NEB9 whole entry): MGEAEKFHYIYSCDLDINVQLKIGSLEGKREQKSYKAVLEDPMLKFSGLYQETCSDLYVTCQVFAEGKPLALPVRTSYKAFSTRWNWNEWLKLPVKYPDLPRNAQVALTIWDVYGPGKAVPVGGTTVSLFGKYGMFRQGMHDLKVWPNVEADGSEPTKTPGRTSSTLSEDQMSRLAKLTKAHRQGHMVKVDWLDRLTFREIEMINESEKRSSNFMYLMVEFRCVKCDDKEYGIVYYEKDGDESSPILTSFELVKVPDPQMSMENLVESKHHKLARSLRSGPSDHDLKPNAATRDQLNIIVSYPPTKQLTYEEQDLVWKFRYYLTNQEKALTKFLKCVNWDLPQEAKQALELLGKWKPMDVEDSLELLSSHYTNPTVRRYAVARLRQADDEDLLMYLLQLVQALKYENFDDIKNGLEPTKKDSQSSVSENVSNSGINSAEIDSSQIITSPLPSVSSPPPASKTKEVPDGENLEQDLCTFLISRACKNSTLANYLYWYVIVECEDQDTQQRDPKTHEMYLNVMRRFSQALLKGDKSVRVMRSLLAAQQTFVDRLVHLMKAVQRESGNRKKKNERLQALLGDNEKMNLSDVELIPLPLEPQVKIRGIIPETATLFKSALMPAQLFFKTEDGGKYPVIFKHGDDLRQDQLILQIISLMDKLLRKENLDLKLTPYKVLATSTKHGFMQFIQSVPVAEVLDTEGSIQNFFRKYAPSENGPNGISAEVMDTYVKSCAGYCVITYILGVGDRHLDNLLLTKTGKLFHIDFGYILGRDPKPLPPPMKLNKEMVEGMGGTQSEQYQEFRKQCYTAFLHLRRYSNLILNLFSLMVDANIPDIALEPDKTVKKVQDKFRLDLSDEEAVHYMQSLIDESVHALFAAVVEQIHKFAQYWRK
Phosphatidylinositol 4-phosphate 3-kinase C2 domain-containing subunit alpha (Homo sapiens), sequence (O00443 whole entry, the tested form may be a part): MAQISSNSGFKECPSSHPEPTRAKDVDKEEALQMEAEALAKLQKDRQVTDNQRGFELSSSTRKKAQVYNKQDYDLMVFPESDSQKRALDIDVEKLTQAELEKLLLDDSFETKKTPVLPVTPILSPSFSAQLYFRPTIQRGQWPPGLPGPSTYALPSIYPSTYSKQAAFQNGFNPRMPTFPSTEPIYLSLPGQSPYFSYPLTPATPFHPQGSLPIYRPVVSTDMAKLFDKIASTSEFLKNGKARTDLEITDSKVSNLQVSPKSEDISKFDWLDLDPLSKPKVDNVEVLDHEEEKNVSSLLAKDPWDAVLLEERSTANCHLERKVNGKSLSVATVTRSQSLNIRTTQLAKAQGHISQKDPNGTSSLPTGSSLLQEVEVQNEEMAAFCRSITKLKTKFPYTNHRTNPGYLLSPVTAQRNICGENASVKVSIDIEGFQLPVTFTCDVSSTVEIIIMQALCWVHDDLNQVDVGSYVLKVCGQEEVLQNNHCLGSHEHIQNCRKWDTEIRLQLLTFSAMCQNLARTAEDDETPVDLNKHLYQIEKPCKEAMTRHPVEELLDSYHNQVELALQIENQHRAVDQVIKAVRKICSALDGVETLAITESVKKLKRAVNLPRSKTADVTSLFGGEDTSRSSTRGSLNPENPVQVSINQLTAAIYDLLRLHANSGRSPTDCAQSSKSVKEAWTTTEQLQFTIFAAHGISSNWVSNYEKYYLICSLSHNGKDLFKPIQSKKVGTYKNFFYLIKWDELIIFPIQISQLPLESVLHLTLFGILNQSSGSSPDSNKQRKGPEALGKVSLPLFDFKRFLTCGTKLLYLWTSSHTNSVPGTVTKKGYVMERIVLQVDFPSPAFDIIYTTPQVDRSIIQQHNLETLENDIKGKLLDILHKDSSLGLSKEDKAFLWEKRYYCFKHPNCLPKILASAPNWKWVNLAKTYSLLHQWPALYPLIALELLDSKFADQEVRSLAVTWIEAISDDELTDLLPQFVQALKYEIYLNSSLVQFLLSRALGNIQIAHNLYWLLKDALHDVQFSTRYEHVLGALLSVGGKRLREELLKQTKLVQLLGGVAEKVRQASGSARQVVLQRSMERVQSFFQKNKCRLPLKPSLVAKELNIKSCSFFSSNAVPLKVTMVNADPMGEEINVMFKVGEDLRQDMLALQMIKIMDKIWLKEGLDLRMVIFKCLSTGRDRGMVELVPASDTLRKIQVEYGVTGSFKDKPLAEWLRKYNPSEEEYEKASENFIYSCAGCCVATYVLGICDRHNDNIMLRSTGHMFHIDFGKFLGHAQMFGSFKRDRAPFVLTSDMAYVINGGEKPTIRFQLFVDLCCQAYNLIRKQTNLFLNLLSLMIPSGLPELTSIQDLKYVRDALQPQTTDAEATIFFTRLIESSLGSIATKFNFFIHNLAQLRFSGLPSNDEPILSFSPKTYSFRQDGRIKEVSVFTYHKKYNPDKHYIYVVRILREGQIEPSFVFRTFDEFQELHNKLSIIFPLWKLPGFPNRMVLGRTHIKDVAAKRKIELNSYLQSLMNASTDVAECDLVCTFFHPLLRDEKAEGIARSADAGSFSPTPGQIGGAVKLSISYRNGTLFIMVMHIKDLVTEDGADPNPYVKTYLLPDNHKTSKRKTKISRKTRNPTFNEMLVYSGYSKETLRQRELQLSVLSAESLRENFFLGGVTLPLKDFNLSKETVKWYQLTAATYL
Phosphatidylinositol 4-phosphate 3-kinase C2 domain-containing subunit beta (Homo sapiens), sequence (O00750 whole entry, the tested form may be a part): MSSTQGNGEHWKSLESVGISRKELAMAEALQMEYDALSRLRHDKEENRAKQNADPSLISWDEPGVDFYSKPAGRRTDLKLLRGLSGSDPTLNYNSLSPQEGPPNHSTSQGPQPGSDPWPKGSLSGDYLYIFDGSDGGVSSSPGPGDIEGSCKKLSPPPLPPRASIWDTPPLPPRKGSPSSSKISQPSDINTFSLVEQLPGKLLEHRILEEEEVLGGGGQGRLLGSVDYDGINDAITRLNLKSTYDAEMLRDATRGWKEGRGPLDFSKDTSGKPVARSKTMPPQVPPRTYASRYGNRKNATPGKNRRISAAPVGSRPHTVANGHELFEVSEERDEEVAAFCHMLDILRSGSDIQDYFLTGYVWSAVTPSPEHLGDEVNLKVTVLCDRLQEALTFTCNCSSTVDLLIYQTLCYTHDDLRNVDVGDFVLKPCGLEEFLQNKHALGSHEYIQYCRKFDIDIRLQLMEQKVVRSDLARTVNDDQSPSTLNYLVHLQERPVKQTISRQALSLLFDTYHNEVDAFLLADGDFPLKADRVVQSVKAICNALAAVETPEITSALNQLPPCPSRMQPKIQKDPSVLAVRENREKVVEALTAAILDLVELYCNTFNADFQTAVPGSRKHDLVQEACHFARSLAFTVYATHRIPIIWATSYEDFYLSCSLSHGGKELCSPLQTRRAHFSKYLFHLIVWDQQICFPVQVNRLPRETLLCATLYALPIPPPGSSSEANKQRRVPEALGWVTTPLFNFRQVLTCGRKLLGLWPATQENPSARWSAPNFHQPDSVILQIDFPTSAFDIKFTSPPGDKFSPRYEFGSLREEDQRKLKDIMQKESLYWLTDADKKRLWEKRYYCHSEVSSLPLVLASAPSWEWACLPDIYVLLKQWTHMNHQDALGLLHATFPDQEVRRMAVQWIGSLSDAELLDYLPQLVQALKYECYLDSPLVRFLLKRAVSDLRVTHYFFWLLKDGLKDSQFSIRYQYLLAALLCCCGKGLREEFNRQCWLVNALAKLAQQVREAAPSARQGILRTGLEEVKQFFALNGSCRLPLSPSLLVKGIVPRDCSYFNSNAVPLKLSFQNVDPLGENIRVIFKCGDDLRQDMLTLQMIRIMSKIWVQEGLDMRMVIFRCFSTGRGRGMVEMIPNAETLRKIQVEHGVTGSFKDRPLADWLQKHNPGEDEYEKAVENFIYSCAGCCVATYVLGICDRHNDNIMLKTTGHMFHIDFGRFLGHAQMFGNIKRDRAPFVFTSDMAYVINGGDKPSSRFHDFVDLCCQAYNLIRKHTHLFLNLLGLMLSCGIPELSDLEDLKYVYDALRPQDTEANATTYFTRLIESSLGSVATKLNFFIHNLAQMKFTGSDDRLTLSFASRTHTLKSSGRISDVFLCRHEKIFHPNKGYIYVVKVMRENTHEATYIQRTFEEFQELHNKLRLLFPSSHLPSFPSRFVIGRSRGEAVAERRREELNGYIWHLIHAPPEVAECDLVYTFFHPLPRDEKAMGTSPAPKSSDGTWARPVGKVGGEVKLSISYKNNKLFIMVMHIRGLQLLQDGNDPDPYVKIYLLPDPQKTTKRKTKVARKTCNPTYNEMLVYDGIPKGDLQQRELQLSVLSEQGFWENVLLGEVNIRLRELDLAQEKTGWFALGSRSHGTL
Phosphatidylinositol 4-kinase beta (Homo sapiens), sequence (Q9UBF8 2-816 limits assumed): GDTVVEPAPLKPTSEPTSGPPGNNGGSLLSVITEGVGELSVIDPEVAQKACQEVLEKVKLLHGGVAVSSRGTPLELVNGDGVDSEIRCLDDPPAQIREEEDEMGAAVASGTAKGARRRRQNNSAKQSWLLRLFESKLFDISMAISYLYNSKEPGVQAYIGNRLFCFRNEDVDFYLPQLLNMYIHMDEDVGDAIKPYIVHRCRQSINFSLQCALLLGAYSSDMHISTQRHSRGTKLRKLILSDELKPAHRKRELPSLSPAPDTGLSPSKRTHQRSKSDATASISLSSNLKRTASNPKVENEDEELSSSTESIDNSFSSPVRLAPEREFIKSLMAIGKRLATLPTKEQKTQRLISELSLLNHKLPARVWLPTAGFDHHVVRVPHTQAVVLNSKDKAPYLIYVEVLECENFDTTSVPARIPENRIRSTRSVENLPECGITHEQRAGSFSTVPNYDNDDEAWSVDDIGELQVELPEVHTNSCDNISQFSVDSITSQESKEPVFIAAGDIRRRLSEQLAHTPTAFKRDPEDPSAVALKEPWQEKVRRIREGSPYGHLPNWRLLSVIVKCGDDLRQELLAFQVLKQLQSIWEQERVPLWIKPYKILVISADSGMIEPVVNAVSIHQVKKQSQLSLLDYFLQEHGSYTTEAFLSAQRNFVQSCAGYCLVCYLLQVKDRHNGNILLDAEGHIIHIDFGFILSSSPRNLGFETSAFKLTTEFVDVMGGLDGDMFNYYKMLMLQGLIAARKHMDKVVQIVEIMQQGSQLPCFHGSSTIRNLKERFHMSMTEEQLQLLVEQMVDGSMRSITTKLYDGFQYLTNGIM

SMILES: CC(C)(O)c1cc2nc(-c3cnc(N)nc3)nc(N3CCOCC3)c2s1
- Cmax [1]: 2100 nM
- bioavailability [2]: 62%
- bioavailability [3]: 83%
- fraction unbound [4]: 0.36
- inhibition in vivo at 10 mg/kg (Mus musculus [5]): 81%
- inhibition in vivo at 10 mg/kg (PC-3 [6]): 89%
- Activity (Mus musculus [7]): Non-toxic
- Vd [8]: 1.6 L/kg
- inhibition in vivo at 10 mg/kg (Mus musculus [9]): 80%
- Activity (PC-3 [10]): inactive
- inhibition [11]: inactive
- clearance [12]: 9 mL/min/kg
- AUC [13]: 14 µM·h
- half-life [14]: 3.6 h
- Activity (PC-3 [15]): 89%
- IC50 (Aurora kinase A): > 10000 nM
- Vd [16]: 3 L/kg
- fraction unbound [17]: 0.51
- clearance [18]: 15 mL/min/kg
- inhibition [19]: 65%
- inhibition in vivo at 10 mg/kg (Mus musculus [20]): 88%
- Activity (Mus musculus [21]): Non-toxic
- bioavailability [22]: 100%
- bioavailability [23]: 83%
- Activity (Mus musculus [24]): Non-toxic
- AUC [25]: 21 µM·h
- Cmax [26]: 2200 nM
- IC50 [27]: 591 nM
- inhibition in vivo at 10 mg/kg [28]: 73%
- inhibition [29]: 78%
- fraction unbound [30]: 0.27
- fraction unbound [31]: 0.21
- IC50 (PC-3 [32]): 330 nM
- clearance [33]: 1.6 mL/min/kg
- inhibition in vivo at 10 mg/kg (Mus musculus [34]): 98%
- inhibition [35]: inactive
- CLint scaled [36]: 23 mL/min/kg
- Vd [37]: 2.8 L/kg
- IC50 [38]: 371 nM
- bioavailability [39]: 100%
- Cmax [40]: 4400 nM
- inhibition in vivo at 10 mg/kg (Mus musculus [41]): 75%
- AUC [42]: 3.8 µM·h
- AUC [43]: 63 µM·h
- clearance [44]: 17 mL/min/kg
- Cmax [45]: 1100 nM
- inhibition in vivo at 10 mg/kg (Mus musculus [46]): 73%
- IC50 [47]: 30 nM
- Vd [48]: 2.8 L/kg
